Assay results as given in patent publication US20050209157A1, “Short bioactive peptides and methods for their use” (priority 2001, published 2005).
Values after ≈ are worked out from the molar mass of the structure shown. Where two headings read alike, the source gives them in different places. No end group written: not given here.

Columns and labels:
[1] = test system: WI38; details: MTT, 24 hours with peptide; for WI38 LD50: normal fibroblast line
[2] = in vitro; details: human, WI38 normal lung fibroblast cells, LD50 WI38, WI38 normal lung fibroblast line, MTT, 24 hours with peptide
[3] = test system: S. typhimurium 14028S; format: cell-based, Salmonella typhimurium; details: for S. typhimurium 14028S MIC: mean of three, 16 to 20 hours at 35° C., in µg/mL
[4] = test system: human red blood cells (RBC); assay: in vitro; format: cell-based; details: hemolytic assay, concentration at 50% hemolysis, 1 hour at 37° C.
[5] = test system: P. aeruginosa H374; format: cell-based, Pseudomonas aeruginosa; details: for P. aeruginosa H374 MIC: mean of three, 16 to 20 hours at 35° C.
[6] = test system: P. aeruginosa; format: cell-based, Pseudomonas aeruginosa; details: P. aeruginosa H744; MIC of nalidixic acid with peptide at ¼ MIC
Method: (§1) The synergistic effects of the inventive peptides with either chloramphenicol or nalidixic acid against efflux mutants of Pseudomonas aeruginosa were investigated. The MIC values were determined for either nalidixic acid or chloramphenicol alone as baselines. Peptides were added at their ¼ MIC concentration, and the concentration of either nalidixic acid or chloramphenicol to arrive at the MIC was determined. […] The fractional inhibitory concentration (FIC) index was used to determine synergy between peptides and antibiotics. Two-fold serial dilutions of antibiotic were tested in the presence of a constant amount of peptide, equal to one quarter of peptide MIC. The FIC index was determined as follows: FIC=0.25+MICantibiotic in combination/MICantibiotic alone. An FIC index of 0.5 or less is considered as synergy.

[7] = test system: P. aeruginosa H374; format: cell-based, Pseudomonas aeruginosa; details: for MIC Cm-comb.: MIC of chloramphenicol with peptide at ¼ MIC; for MIC Nal-comb.: MIC of nalidixic acid with peptide at ¼ MIC; for FIC Index: 0.5 or less = synergy
Method: as §1

[8] = test system: P. aeruginosa H774; format: cell-based, Pseudomonas aeruginosa; details: P. aeruginosa H744; nalidixic acid + peptide at ¼ MIC; 0.5 or less = synergy
Method: as §1

[9] = test system: E. coli UB1005; format: cell-based, Escherichia coli; details: for E. coli UB1005 MIC: mean of three, 16 to 20 hours at 35° C., in µg/mL
[10] = test system: H1299; assay: Anti-cancer assay, MTT, LD50; format: cell-based; details: 24 hours with peptide, lung large cell carcinoma
Description: (§2) Numbers are LD50 values (μg/mL).

[11] = test system: SW480; assay: Anti-cancer assay, MTT, LD50; format: cell-based; details: SW480 colon adenocarcinoma line, 24 hours with peptide
Description: as §2

[12] = test system: MCF7; assay: Anti-cancer assay, MTT, LD50; format: cell-based; details: MCF7 breast adenocarcinoma line, MTT, 24 hours with peptide
Description: as §2

[13] = test system: BMKC; assay: Anti-cancer assay, MTT, LD50; format: cell-based; details: BMKC cloned melanoma line, 24 hours with peptide
Description: as §2

[14] = test system: PC3; assay: Anti-cancer assay, MTT, LD50; format: cell-based; details: 24 hours with peptide, prostate adenocarcinoma
Description: as §2

[15] = test system: HeLaS3; assay: Anti-cancer assay, MTT, LD50; format: cell-based; details: 24 hours with peptide, cervical carcinoma
Description: as §2

[16] = test system: Staphylococcus aureus ATCC 6538; assay: Antimicrobial assay I, MIC by OD measurement; format: cell-based; details: 37° C. for 24 hours, absorbance 620 nm
[17] = test system: Pseudomonas aeruginosa ATCC 9027; assay: Antimicrobial assay I, MIC by OD measurement; format: cell-based; details: 37° C. for 24 hours, absorbance 620 nm
[18] = test system: yeast (Saccharomyces cerevisiae); assay: Antimicrobial assay I, yeast assay in RPMI 1640; format: cell-based; details: RPMI 1640 media
[19] = test system: Pseudomonas aeruginosa H187; format: cell-based; details: in µg/mL
[20] = test system: Candida glabrata ATCC15126; assay: Antimicrobial assays II, NCCLS broth microdilution MIC; format: cell-based; details: in µg/mL
[21] = test system: Candida albicans 105; format: cell-based; details: Table 13; in µg/mL
[22] = test system: S. epidermidis C621; format: cell-based, Staphylococcus epidermidis; details: Table 13; in µg/mL
[23] = test system: S. aureus (MRSA); format: cell-based, Staphylococcus aureus; details: Table 13, strain SAP0017; in µg/mL
[24] = chloramphenicol + peptide at ¼ MIC
[25] = nalidixic acid + peptide at ¼ MIC, FIC=0.25+MIC comb/MIC alone

Compound	WI38 LD50 [1]	CC50 at 24 h [2] [µg/mL]	S. typhimurium 14028S MIC [3]	LD50 [4]	P. aeruginosa H374 MIC [5] [µg/mL]	MIC Nal-comb. [6] [µg/mL]	MIC Cm-comb. [7] [µg/mL]	MIC Nal-comb. [7] [µg/mL]	FIC Index [7, 24]	FIC Index [7, 25]	FIC Index [8]	E. coli UB1005 MIC [9]	H1299 LD50 [10]	LD50 SW480 [11]	LD50 MCF7 [12]	LD50 BMKC [13]	PC3 LD50 [14]	HeLaS3 LD50 [15]	MIC P. aeruginosa H187 ([19]; Table 8)	MIC C. glabrata ATCC15126 ([20]; Table 8)	also measured
LPKWKVFKKIEKVGRNIRNGIVKAGPAIAVLGEAKALG-NH2 [P306, reference compound]	320 µg/mL	320	4	> (> indicates greater than 1000)	8	312	8	5000	0.75	1.25	0.75	4	120 µg/mL	240 µg/mL	50 µg/mL	170 µg/mL	370 µg/mL	250 µg/mL	–	–	–
FAKKLAKLAKKALAL-NH2 [P39, FAKKLAKLAKKALAL-NH2]	300 µg/mL	300	16	> (> indicates greater than 1000)	16	624	8	1250	0.75	0.5	1.25	4	420 µg/mL	435 µg/mL	130 µg/mL	510 µg/mL	310 µg/mL	620 µg/mL	–	–	staph6538 (MIC) [16]: 100 µg/mL; paerug9027 (MIC) [17]: 25 µg/mL; yeast (MIC or MFC) [18]: 100 µg/mL
FAKKLAKLAKKLAKAL-NH2 [P109]	> (> indicates greater than 1000)	–	32	> (> indicates greater than 1000)	8	624	16	2500	1.25	0.75	1.25	16	> (> indicates greater than 1000)	> (> indicates greater than 1000)	> (> indicates greater than 1000)	> (> indicates greater than 1000)	> (> indicates greater than 1000)	> (> indicates greater than 1000)	–	–	staph6538 (MIC) [16]: > (> indicates greater than 200 μg/mL); paerug9027 (MIC) [17]: 200 µg/mL; LD50 WI38 ([1]; WI38 normal lung fibroblast line): > (> indicates greater than 1000); yeast (MIC or MFC) [18]: 200 µg/mL
FAKKLAKKLKKLAKLALAL-OH [P29 (14)]	–	–	–	–	–	–	–	–	–	–	–	–	–	–	–	–	–	–	32	128	–
FAKKFAKKFKKFAKKFAKFAFAF-NH2 [P301 (147)]	–	–	–	–	–	–	–	–	–	–	–	–	–	–	–	–	–	–	–	–	MIC P. aeruginosa H187 ([19]; Table 12): 8; MIC C. glabrata ATCC15126 ([20]; Table 13): 32; MIC C. albicans 105 [21]: 32; MIC S. epidermis C621 [22]: 4; MIC S. typhimurium 14028S ([3]; Table 12): 8 µg/mL; MIC P. aeruginosa H374 ([5]; Table 12, in µg/mL): 4; MIC S. aureus SAP0017 [23]: 8; MIC E. coli UB1005 ([9]; Table 12): 8 µg/mL
FAKKLLAKALKL-NH2 [P110]	45 µg/mL	45	32	> (> indicates greater than 1000)	8	624	16	2500	1.25	0.75	1.25	16	95 µg/mL	325 µg/mL	180 µg/mL	400 µg/mL	> (> indicates greater than 1000)	540 µg/mL	–	–	staph6538 (MIC) [16]: > (> indicates greater than 200 μg/mL); paerug9027 (MIC) [17]: 200 µg/mL; yeast (MIC or MFC) [18]: 200 µg/mL
FAKKLAKLAKKLAKAL-NH2 [P109 (73)]	–	–	–	–	–	–	–	–	–	–	–	–	–	–	–	–	–	–	64	128	–
CC(C)C[C@H](NC(=O)[C@H](C)NC(=O)[C@H](CCCCN)NC(=O)[C@H](CC(C)C)NC(=O)[C@H](C)NC(=O)[C@H](CC(C)C)NC(=O)[C@H](C)NC(=O)[C@H](CC(C)C)NC(=O)[C@H](CCCCN)NC(=O)[C@H](C)NC(=O)[C@H](CC(C)C)NC(=O)[C@H](CCCCN)NC(=O)[C@H](CCCCN)NC(=O)[C@H](C)NC(=O)[C@H](CC(C)C)NC(=O)[C@H](CCCCN)NC(=O)[C@H](CCCCN)NC(=O)[C@H](CC(C)C)NC(=O)[C@H](CCCCN)NC(=O)[C@H](CCCCN)NC(=O)[C@H](C)NC(=O)[C@H](CC(C)C)NC(=O)[C@H](CCCCN)NC(=O)[C@H](CCCCN)NC(=O)[C@H](C)NC(=O)[C@@H](N)Cc1ccccc1)C(=O)N[C@@H](C)C(=O)N[C@@H](CC(C)C)C(=O)N[C@@H](CCCCN)C(=O)N[C@@H](C)C(=O)O [P100, reference compound]	–	95 (≈ 29.4 µM)	4	> (> indicates greater than 1000)	8	624	16	2500	1.25	0.75	1.25	0.5	–	82 µg/mL	175 µg/mL	120 µg/mL	–	–	–	–	–
CC(C)C[C@H](NC(=O)[C@H](C)NC(=O)[C@H](CCCCN)NC(=O)[C@H](CC(C)C)NC(=O)[C@H](C)NC(=O)[C@H](CC(C)C)NC(=O)[C@H](C)NC(=O)[C@H](CC(C)C)NC(=O)[C@H](CCCCN)NC(=O)[C@H](C)NC(=O)[C@H](CC(C)C)NC(=O)[C@H](CCCCN)NC(=O)[C@H](CCCCN)NC(=O)[C@H](C)NC(=O)[C@H](CC(C)C)NC(=O)[C@H](CCCCN)NC(=O)[C@H](CCCCN)NC(=O)[C@H](CC(C)C)NC(=O)[C@H](CCCCN)NC(=O)[C@H](CCCCN)NC(=O)[C@H](C)NC(=O)[C@H](CC(C)C)NC(=O)[C@H](CCCCN)NC(=O)[C@H](CCCCN)NC(=O)[C@H](C)NC(=O)[C@@H](N)Cc1ccccc1)C(=O)N[C@@H](C)C(=O)N[C@@H](CC(C)C)C(=O)N[C@@H](CCCCN)C(=O)N[C@@H](C)C(=O)O [P100 (163)]	–	–	–	–	–	–	–	–	–	–	–	–	–	–	–	–	–	–	32	>128	–
FAKKLLAKALKL-NH2 [P110 (74)]	–	–	–	–	–	–	–	–	–	–	–	–	–	–	–	–	–	–	64	128	–
